# Reference: the OligoGym collection
# Values joined by “and” are separate entries in the source; they are usually repeats but may differ in a detail not shown here. Identical values can stand only once. These antisense oligonucleotides have a phosphorothioate backbone; sugars and methylation of C are not fully specified.
# Target: DUSP8
# Conditions: ASO
# Also: test concentration or dose not given here.
row,Sequence,remaining target (mRNA or protein) (fraction of control)
1,GGAGAAGGAGCGCTTGAGGC,0.98
2,GGGCAGCCCGGGCGCCGACA,0.81
3,TTTCACAGTAGTTGTCGTTG,≥ 1
4,GGCCAGCCGGTCCGCGCGTC,0.52
5,TCTGCCGGGCCGCATCGCCG,0.35
6,CCGACGGGCTGTCCAGCTTG,0.94
7,GAGCTCGAGGACCACCCGCA,0.89
8,GTCAGGACACCTCGATGACC,≥ 1
9,AGAGGTGAGGCAGGATGCGG,≥ 1
10,CCCAGGCCCGCCCCGCAGCA,0.66
11,CACCATGCCCTCCTCGAACT,0.84
12,CCTCAGGCGCGGCGTCCGGG,≥ 1
13,GAGAGCTTGGCTTTATCGAT,0.68
14,GTAGGTGGTGGCAGCCGTGG,≥ 1
15,GTCGAAGCAGCCGTCCAGCT,≥ 1
16,TGCCCATGGTCTTCATGATG,0.7
17,CGCCCGCCCGGCCGAAGGGC,0.86
18,AAGCTGTCTGCGGCCAGCAC,0.71

row,Sequence,remaining target (mRNA or protein) (fraction of control)
1,ACCTGGCTGCGTGCAGCCGG,≥ 1
2,GACTGAAGGTGGCCTCGTAT,0.69
3,TCACCTTGCCCTGCTGCAGC,0.33
4,CTCAGGCCGCCCTCCCTGGC,0.65
5,GCCTGTCCTTCACGAACCTG,≥ 1
6,AGCAGATGTTGACGGAGCTG,≥ 1
7,ATCAGATCCTTGTTTAGGAC,≥ 1
8,TGGTCATAGACCACCACGTC,≥ 1
9,CAGGCTTGCCCTCGCAGAGG,≥ 1
10,AGCTGGCCCAGGAAGTTGAA,0.95
11,TCGCCTGCTTGCCCAGGGCG,0.69
12,TTGCTGGCGTTGAGGACGTA,0.45
13,AGGAGAGGTGCAGGCCGCGC,0.91
14,GAGCCGGTCCCCAGCCATGG,≥ 1
15,GGCTGCTCCGACGGCCCAGG,≥ 1
16,CCCGTCGGGCGACGGCGTGC,≥ 1
17,GCTGGACCTCGCTCGCGCTC,≥ 1
18,CAGGGCGGCCAGCAGCTTCA,≥ 1

# Target: PIK3CB
# Conditions: ASO
row,Sequence,remaining target (mRNA or protein) (fraction of control)
1,ATTGAGTGCTTCAACCTGCT,≥ 1
2,ATGAACAGCTACGATGAGCT,0.73
3,CACACAGTTCCGGATATACT,≥ 1
4,GAGGATAACACATGGGTTCA,≥ 1
5,ATTCCCATGCCGTCGTAAAA,≥ 1
6,TAAGGCAACATCCGAAGATC,0.96
7,CATATTAGGAGACACTTGAA,≥ 1
8,CAGCGCAAAGAGAGTGATGA,≥ 1
9,ATTAGTGGATGATCACCAAA,0.99
10,TACATTTTCTTGATCTTGCA,≥ 1
11,TATTGAGAAAGTTCTTCATC,0.86
12,CCATAACATCTGCTTAATAT,≥ 1
13,GGGCAAAAGGAAATCCACAG,≥ 1
14,TAAACACGTCCTGGCAGTTT,≥ 1
15,ACTGGATATAAATCCCAGTG,≥ 1
16,TGCTATCTGTGAATCCACCG,0.99
17,CTGGAAGAAAAGGTCTGACA,≥ 1
18,TTCCCGAGGTACCTCCAACT,0.7
19,GTCAATATCCATAAGGAGGT,≥ 1
20,GGCCAAATCTGAAGCAGCGC,≥ 1

row,Sequence,remaining target (mRNA or protein) (fraction of control)
1,AGGTATGGAGCCATCAGATG,≥ 1
2,AGTAGCCAGCACAGGACAGT,≥ 1
3,AATTGTGAACTTGCTTCCAT,0.74
4,GATGTCTGCCATAGCAGGAG,≥ 1
5,AACATTTGGAGTGTCAACAT,≥ 1
6,GATCCTTCAAGGAATCAAAT,0.91
7,CACCGCCCAGATGTCAAGGA,0.5
8,TTCACTTTAGTAGTCCAGCT,0.89
9,CTTCCCATGAATAGTCAAAC,0.53
10,ATGCAAACATATAGGAGTCA,≥ 1
11,GAGGTTGAACATTGGGTAAT,0.79
12,GGCATTATGAAACTGAAGCA,≥ 1
13,ACTATGTCTGTCACCAATCC,0.52
14,TGCCAATTCATTTACTTTGA,≥ 1
15,TGTAATATTATGTCTCCAGT,0.9
16,ACCAGCCCTGACATGAACTT,0.45
17,AAGTTTTCAGGGATGGATGG,≥ 1
18,TGCAACACATAATCATAGGG,≥ 1
19,TATAAGAAATGGTAGCTTCC,≥ 1

# Target: PIK3CD
# Conditions: ASO
row,Sequence,remaining target (mRNA or protein) (fraction of control)
1,GGAAGCTGAAGTCTAGCAGC,0.84 and 0.56
2,CCTCGGGAGGAGAACAGTCT,≥ 1 and 0.45
3,ACTGCCTGTTGTCTTTGGAC,0.74 and 0.44
4,GATGACAGTTGTCCTCTCTG,0.84 and 0.46
5,ACCAATGTGCTTGGTCCCCA,≥ 1 and 0.37
6,ACCCACTTGAAAAGTGGAGA,0.99 and 0.8
7,AGTCCACCCCAGGGGGCATC,≥ 1 and 0.45
8,GGACGGGCAGGAAGGGCTGC,≥ 1 and 0.87
9,GGCAGATTAAAGATGCTTTA,0.9 and 0.48
10,ACTACTGCCTGTTGTCTTTG,≥ 1 and 0.44
11,CCAGGGCTGGGAGGAGCCAC,0.91 and 0.69
12,CCCCAGGGGGCATCCTGCGT,0.81 and 0.96
13,CCCCGGTCTTAAGCTGGTCC,0.31 and 0.42
14,CAGGGGGCATCCTGCGTTGT,0.85 and ≥ 1
15,GCATCCTGCGTTGTTACTTC,0.89 and 0.35
16,GGCAGTCCACCCCAGGGGGC,0.76 and 0.56
17,AGACCCCTGTGGGCAGCAGG,0.78 and 0.46
18,GCCACTACTGCCTGTTGTCT,0.59 and 0.3
19,GCGCAGCTGGCAGGGCTGGG,0.86 and ≥ 1
20,GCGGCACGTCCTTGGTGGAC,0.93 and 0.54
21,CAGCCGAGAGCCAGGTGCAG,≥ 1 and 0.59
22,CCTCCTCTTGGGCCCAGGGC,≥ 1 and 0.71

# Target: MAP2K1
# Conditions: ASO
row,Sequence,remaining target (mRNA or protein) (fraction of control)
1,GTTGGTCTCCGCAGAGCT,0.37
2,CTAGGATGTTGGAGGGCT,0.27
3,AGGAGGCCCAAAAGCGAC,0.65
4,GGCCTTTTATTACAGCAA,0.5
5,GCTTGTGGGAGACCTTGA,0.65
6,CCCAGCTCACTGATCTTC,0.89
7,GCAGTTTTGGAGGAGGCT,0.32
8,TCTCGCTTCCTCCCTCGT,0.74
9,AGTCACAGAGCTTGATCT,0.31
10,AGGCCGATGGTGGAGCAG,0.14
11,TGGAGTCTTTCTGGCGAC,0.44
12,TCTGCTTCTGGGTAAGAA,≥ 1
13,AAGGATTTTCATACAATT,0.7
14,GAAGGATCTCACAAGGCT,0.27
15,TCTCAGCCGCATCTCCTT,0.13
16,AGTCGATGAGCTGCCCGC,0.24
17,TGAAGCCCCAGCTATCAT,0.41
18,CTCTGTGCATGATCTTGT,0.51
19,CTCTTTGTTGCTTCCCAA,0.38
20,GTAATCCAACAACTCAAA,0.79

row,Sequence,remaining target (mRNA or protein) (fraction of control)
1,CACCCAAACATCAGCTCC,0.41
2,CTACCCACATTCACCAAA,0.72
3,TACCAGAGACAGTCCCAT,0.24
4,AAGAGTAGAATCTTGGCA,0.9
5,TAACGCGCTTCCAACTCC,0.3
6,CAAAATCCACTTCCTCAG,0.28
7,AACCAGAAGTCTACAGAT,0.69
8,CATCTGGAGGAGGGATGG,0.71
9,ATTAAGCATTTATTCACA,≥ 1
10,TTCCAGCTTTCTTCAGGA,0.58
11,GTACGGAGAGTTGCACTC,0.25
12,TGCAGATACTGATCTCGC,0.29
13,AGCAGCATGGGTTGGTGT,0.41
14,ACTAAGTATCCCACACAG,0.16
15,GGCGTCGGCTTCTTCTTG,0.3
16,TACAACAGCATTGGTACT,0.23
17,GAGTTCTACATGAAAAGC,0.66
18,CATGAACCATGAGTTGCT,0.24
19,CTGACTGCACAGAGTAAT,0.2
